Results from article PMC7533260, “Design and tests of prospective property predictions for novel antimalarial 2-aminopropylaminoquinolones” (Journal of Computer-Aided Molecular Design, 2020).

Target: T1, s-PfDHODH (Plasmodium falciparum, UniProt Q08210)
T1 sequence (Q08210 158-569 limits assumed): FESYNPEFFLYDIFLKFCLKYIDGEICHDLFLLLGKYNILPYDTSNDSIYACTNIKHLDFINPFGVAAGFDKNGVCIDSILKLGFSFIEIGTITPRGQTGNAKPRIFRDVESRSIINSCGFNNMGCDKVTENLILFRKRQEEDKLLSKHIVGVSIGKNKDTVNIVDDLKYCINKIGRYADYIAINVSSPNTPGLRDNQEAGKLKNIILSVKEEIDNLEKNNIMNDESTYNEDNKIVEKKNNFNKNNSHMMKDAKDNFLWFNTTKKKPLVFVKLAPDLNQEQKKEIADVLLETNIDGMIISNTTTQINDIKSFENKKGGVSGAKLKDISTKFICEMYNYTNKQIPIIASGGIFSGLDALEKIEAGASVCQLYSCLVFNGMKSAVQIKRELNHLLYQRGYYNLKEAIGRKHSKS
Assay: not given
Design: method as in earlier work
Details: literature data used to construct QSAR models; cited from earlier work

Structure (SMILES) | IC50
C/C(O)=C(/C#N)C(=O)Nc1ccc(-c2cccc(Cl)c2)c(Cl)c1 [Compound D25] | 237000 nM
C/C(O)=C(/C#N)C(=O)Nc1ccc(-c2ccccc2Cl)cc1 [Compound D27] | 47400 nM
C/C(O)=C(\C#N)C(=O)Nc1ccc(-c2cccc(Cl)c2)cc1C(F)(F)F [Compound D23] | 57200 nM
C/C(O)=C(/C#N)C(=O)Nc1ccc(-c2ccccc2Cl)cc1Cl [Compound D17] | 4000 nM
COc1ccccc1-c1ccc(NC(=O)/C(C#N)=C(\C)O)c(Cl)c1 [Compound D19] | 8600 nM
C/C(O)=C(/C#N)C(=O)Nc1ccc(-c2cccc(Cl)c2)cc1Cl [Compound D22] | 49100 nM
C/C(O)=C(/C#N)C(=O)Nc1ccc(-c2ccccc2)cc1 [Compound D10] | 25700 nM
CCOc1cccc(-c2ccc(NC(=O)/C(C#N)=C(\C)O)cc2)c1 [Compound D29] | 182000 nM
C/C(O)=C(/C#N)C(=O)Nc1ccc(-c2ccccc2)cc1Cl [Compound D28] | 51100 nM
C/C(O)=C(/C#N)C(=O)Nc1ccc(-c2ccccc2Cl)c(Cl)c1 [Compound D24] | 165000 nM
C/C(O)=C(/C#N)C(=O)Nc1ccc(-c2cccc(Cl)c2Cl)cc1 [Compound D26] | 27200 nM
C/C(O)=C(/C#N)C(=O)Nc1ccc(-c2c(Cl)cccc2Cl)cc1Cl [Compound D21] | 10200 nM
C/C(O)=C(/C#N)C(=O)Nc1ccc(-c2cccc(Cl)c2Cl)cc1Cl [Compound D20] | 9900 nM
Cc1cc(Nc2ccc(C(F)(F)F)c(F)c2)n2ncnc2n1 [Compound G47] | 80 nM
N#C/C(C(=O)Nc1ccc(C(F)(F)F)cc1)=C(/O)C1CC1 [Compound D04] | 92500 nM
C/C(O)=C(\C#N)C(=O)Nc1ccc(-c2ccccc2Cl)cc1C(F)(F)F [Compound D18] | 6200 nM

Target: T1, s-PfDHODH
Assay: Literature inhibition data for soluble recombinant PfDHODH (s-PfDHODH), dodecylubiquinone as substrate
Assay type: biochemical
Details: not given
Source text: Data on PfDHODH inhibition were collected from the literature for a structurally diverse group of compounds. These included triazolopyrimidines, diphenylureas, and 2-cyano-3-hydroxy acrylanilides, among others. Quantitative data were not available for inhibition of the intact enzyme, which is bound to the mitochondrial membrane by its hydrophobic N-terminus in vivo [16]. […] The very low solubility of CoQ-10 limits its utility in vitro, so an artificial ubiquinone (dodecylubiquinone [DQ]) is usually used as substrate instead.
The IC50 data for these 89 compounds were converted to inhibition constants (Ki’s) by assuming competitive inhibition against DQ and applying the method described by Cheng and Prusoff. Two artificial neural network ensemble (ANNE) regression models were constructed (henceforth referred to as Model A and Model B) using ADMET Modeler™ module of ADMET Predictor® [18]. The models were built on distinct 20% hold-out test sets (see Supplementary Methods for details).

Structure (SMILES) | Ki
C/C(O)=C(/C#N)C(=O)Nc1ccc(-c2ccccc2Cl)cc1 [Compound D27] | 5600 nM
C/C(O)=C(\C#N)C(=O)Nc1ccc(-c2cccc(Cl)c2)cc1C(F)(F)F [Compound D23] | 6800 nM
CCCNC(=O)c1ccc(-n2c(C)cc3ccccc32)s1 [Compound P03] | 20 nM
CCOC(=O)/C(C#N)=C\Nc1ccc2c(c1)c1ccccc1n2CC [He06] | 50 nM
Cc1cc(Nc2ccc(C(N)=O)cc2)n2ncnc2n1 [Tz13] | 80000 nM
C/C(O)=C(/C#N)C(=O)Nc1ccc(-c2ccccc2)cc1 [Compound D10] | 3000 nM
Cc1cc(Nc2ccc(C#N)c(C(F)(F)F)c2)n2ncnc2n1 [Compound G45] | 1960 nM
CCOc1cccc(-c2ccc(NC(=O)/C(C#N)=C(\C)O)cc2)c1 [Compound D29] | 21500 nM
O=C(Nc1ccccc1C(F)(F)F)Nc1cccc2ccccc12 [Compound B11] | 180 nM
Cc1c(C(=O)Nc2ccc(Cl)c(Cl)c2)cccc1[N+](=O)[O-] [Compound B09] | 40 nM
Cc1c(C(=O)Nc2cccc(Br)c2)cccc1[N+](=O)[O-] [Compound B04] | 20 nM
C/C(O)=C(/C#N)C(=O)Nc1ccc(-c2ccccc2Cl)c(Cl)c1 [Compound D24] | 20500 nM
CCOC(=O)C(=CNc1ccc(C)cc1)C(=O)OCC [He08] | 4600 nM
CCOC(=O)C(=CNc1cccc(-c2ccccc2)c1)C(=O)OCC [He14] | 10000 nM
Cc1c(C(=O)Nc2cccc3ccccc23)cccc1[N+](=O)[O-] [Compound B08] | 30 nM
Cc1cc(Nc2ccccc2)n2ncnc2n1 [Tz19] | 40000 nM
CCOC(=O)C(=CNc1ccc2[nH]cnc2c1)C(=O)OCC [He10] | 40200 nM
Cc1cc(Nc2ccc3cc4ccccc4cc3c2)n2ncnc2n1 [Tz20] | 20 nM
Cc1c(C(=O)Nc2cccc(C(F)(F)F)c2)cccc1[N+](=O)[O-] [Compound B10] | 40 nM
C/C(O)=C(/C#N)C(=O)Nc1ccc(-c2c(Cl)cccc2Cl)cc1Cl [Compound D21] | 1200 nM
Cc1cc(Nc2ccc(C(F)(F)F)c(F)c2)n2ncnc2n1 [Compound G47] | 30 nM
O=C(Nc1ccc(Cl)cc1Cl)c1ccc2ccccc2c1 [Compound B01] | 30 nM
CCOC(=O)C(=CNc1ccccc1C)C(=O)OCC [He09] | 39700 nM
CCOC(=O)C(=CNc1ccc2sc3ccccc3c2c1)C(=O)OCC [He05] | 20 nM
CCCNC(=O)c1ccc(-n2ccc3ccccc32)s1 [Compound P06] | 200 nM
Cc1c(C(=O)Nc2ccc(F)c(Cl)c2)cccc1[N+](=O)[O-] [Compound B05] | 40 nM
COc1ccccc1NC(=O)Nc1cccc2ccccc12 [Compound B12] | 120 nM
O=C(Nc1ccc(Cl)cc1)Nc1cccc2cccnc12 [Compound B13] | 540 nM
O=C(Nc1ccccc1F)c1ccc2ccccc2c1 [Compound B03] | 200 nM
Cc1c(C(=O)Nc2ccc(F)c(F)c2)cccc1[N+](=O)[O-] [Compound B07] | 140 nM

Same assay, conditions: converted from literature IC50 assuming competitive inhibition against DQ (Cheng and Prusoff); read-out: PfDHODH Ki

Structure (SMILES) | Ki
Cc1cc(Nc2ccc(OC(F)(F)F)cc2)n2ncnc2n1 [Compound G23] | 480 nM
C/C(O)=C(/C#N)C(=O)Nc1ccc(-c2cccc(Cl)c2)c(Cl)c1 [Compound D25] | 28000 nM
C/C(O)=C(/C#N)C(=O)Nc1ccc(-c2ccccc2Cl)cc1Cl [Compound D17] | 480 nM
Cc1ccccc1/C=C/c1cc(O)c2ccccc2n1 [Compound P01] | 400 nM
Cc1nc2ncnn2c(Nc2ccc3ccccc3c2)c1C [Tz10] | 60 nM
Cc1c(C(=O)Nc2cc(Cl)cc(Cl)c2)cccc1[N+](=O)[O-] [Compound B06] | 10 nM
Cc1cc(Nc2ccc(C)c(F)c2)n2ncnc2n1 [Compound G46] | 340 nM
Cc1cc(Nc2ccc(F)c(F)c2F)n2ncnc2n1 [Compound G31] | 11600 nM
Cc1cc(N(C)c2ccc3ccccc3c2)n2ncnc2n1 [Tz11] | 1200 nM
COc1ccccc1-c1ccc(NC(=O)/C(C#N)=C(\C)O)c(Cl)c1 [Compound D19] | 1000 nM
C/C(O)=C(/C#N)C(=O)Nc1ccc(-c2cccc(Cl)c2)cc1Cl [Compound D22] | 5800 nM
CCc1cc(Nc2ccc3ccccc3c2)n2ncnc2n1 [Tz09] | 80 nM
CCCNC(=O)c1ccc(-n2c(C)nc3ccccc32)s1 [Compound P11] | 70 nM
Cc1cc(Nc2cc(F)c(F)cc2F)n2ncnc2n1 [Compound G32] | 6800 nM
Cc1cc(Nc2ccc(C)c(C)c2)n2ncnc2n1 [Compound G44] | 140 nM
Cc1cc(Nc2cccc(Cl)c2)n2ncnc2n1 [Compound G14] | 560 nM
Cc1cc(Nc2cccc(C(F)(F)F)c2)n2ncnc2n1 [Compound G16] | 5600 nM
Cc1cc(Nc2ccc(F)cc2)n2ncnc2n1 [Compound G17] | 7600 nM
C/C(O)=C(/C#N)C(=O)Nc1ccc(-c2ccccc2)cc1Cl [Compound D28] | 6000 nM
CCCNC(=O)c1ccc(-n2cnc3ccccc32)s1 [Compound P10] | 300 nM
Cc1cc(Nc2ccc3ncccc3c2)n2ncnc2n1 [Tz15] | 480 nM
FC(F)(F)c1cc(Nc2ccc3ccccc3c2)n2ncnc2n1 [Tz08] | 80 nM
Cc1cc(Nc2ccc(Cc3ccccc3)cc2)n2ncnc2n1 [Compound G27] | 880 nM
O=C(NC1CC1)c1ccc(N2CCSc3ccccc32)s1 [Compound P04] | 110 nM
C/C(O)=C(/C#N)C(=O)Nc1ccc(-c2cccc(Cl)c2Cl)cc1 [Compound D26] | 3200 nM
Cc1cc(Nc2ccc(F)c(C)c2)n2ncnc2n1 [Compound G40] | 1840 nM

Structure (SMILES) | Ki
Cc1cc(Nc2ccc3c(=O)cc(C)oc3c2)n2ncnc2n1 [Tz17] | 800 nM
Cc1cc(Nc2ccc(-c3ccccc3)cc2)n2ncnc2n1 [Compound G26] | 2120 nM
Cc1cc(Nc2ccc(Br)c(C(F)(F)F)c2)n2ncnc2n1 [Compound G42] | 180 nM
Cc1ccc(Nc2cc(C)nc3ncnn23)cc1 [Compound G20] | 1680 nM
Cc1cc(Nc2cccc3ccccc23)n2ncnc2n1 [Tz18] | 18000 nM
Cc1cc(Nc2ccc([N+](=O)[O-])cc2)n2ncnc2n1 [Compound G25] | 1720 nM
C/C(O)=C(/C#N)C(=O)Nc1ccc(-c2cccc(Cl)c2Cl)cc1Cl [Compound D20] | 1200 nM
Cc1cc(Nc2ccc(OC(F)F)cc2)n2ncnc2n1 [Compound G24] | 1120 nM
Cc1cc(N(Cc2ccccc2)c2ccc3ccccc3c2)n2ncnc2n1 [Tz12] | 37200 nM
Cc1cc(Nc2ccc(Br)cc2)n2ncnc2n1 [Compound G19] | 310 nM
Cc1cc(Nc2ccc(Cl)cc2)n2ncnc2n1 [Compound G18] | 640 nM
Cc1cc(Nc2cccc(F)c2)n2ncnc2n1 [Compound G13] | 3680 nM
Cc1ccc(Nc2cc(C)nc3ncnn23)c(F)c1 [Compound G36] | 10800 nM
Cc1cc(Nc2cc3ccccc3cc2O)n2ncnc2n1 [Tz16] | 130 nM
Cc1cc(Nc2ccc(C)c(C(F)(F)F)c2)n2ncnc2n1 [Compound G43] | 620 nM
CCCCCC1CCCc2c1nc1ccccc1c2O (stereo not shown) [Compound P02] | 150 nM
Cc1cc(Nc2ccc(Cl)c(C(F)(F)F)c2)n2ncnc2n1 [Compound G41] | 320 nM
Cc1cc(Nc2cc(F)cc(F)c2)n2ncnc2n1 [Compound G38] | 3760 nM
N#C/C(C(=O)Nc1ccc(C(F)(F)F)cc1)=C(/O)C1CC1 [Compound D04] | 11000 nM
Cc1cc(Nc2ccc(F)c(F)c2)n2ncnc2n1 [Compound G37] | 3200 nM
CCOC(=O)C(=CNc1ccc2[nH]ncc2c1)C(=O)OCC [He07] | 3200 nM
Cc1cc(Nc2cnc3ccccc3c2)n2ncnc2n1 [Tz14] | 680 nM
C/C(O)=C(\C#N)C(=O)Nc1ccc(-c2ccccc2Cl)cc1C(F)(F)F [Compound D18] | 730 nM
Cc1cccc(Nc2cc(C)nc3ncnn23)c1 [Compound G15] | 1960 nM
COc1ccc(Nc2cc(C)nc3ncnn23)cc1 [Compound G22] | 1840 nM
